Reference: patent US10472330B2, “Substituted triazenes protected from degradation by carboxylation of N1” (ARIZONA BOARD OF REGENTS ON BEHALF OF THE UNIVERSITY OF …, priority 2015, dated 2019)

Columns and labels:
Format in all cases: physicochemical
[1] = Solubility observations
Method: It is possible that Compound A may be useful as a photo-catalytic base in the context of organic reactions. […] As noted previously, Compound A is quite stable to an excess of acetic acid in DMSO, showing only 12% degradation over 14 hours at room temperature. […] To confirm that this was due to the acid, a solution of Compound A (in pure DMSO) was irradiated. After four hours of constant irradiation in acid-free DMSO, an E:Z ratio of nearly 50:50 was observed.
(§1) As another non-limiting example, an azide (e.g., NHS-azide) to N-heterocyclic carbene (NHC) route may be used to synthesize triazabutadiene molecules (e.g., see FIG. 6C). For example, as shown in Compound 4 of FIG. 6D, a triazabutadiene molecule was synthesized from dimethyl imidazole derived NHC and phenyl azide. […] This change was confirmed to coincide with diazonium formation by trapping the reactive species with resorcinol to provide known diazo dye Sudan Orange G. When the triazabutadiene molecule (Compound 4) was treated with the much less acidic acetic acid, the same product was obtained.
(§2) To render the triazabutadiene water-soluble, methyl imidazole was alkylated with propane sultone to provide the Zwitterionic NHC precursor Compound 5a (see FIG. 6E). […] Compound 6a was highly colored, so its pH dependence was studied using UV/vis. The reactions were not only pH-, but also scan-frequency dependent. Upon finding this, the stability of Compound 6a was studied in D2O in the dark using NMR. Even in the dark it was unstable, but not in the diazonium-forming way. Both Compound 6b and a more hindered mesityl (Mes) substituted Compound 6c (see FIG. 6E) were synthesized to stabilize what was initially considered to be a rearrangement pathway that could be blocked by steric repulsion. […] Dissolution in 0.1 N NaOH rendered all compounds stable (e.g., no detectable degradation after 24 hours in the dark).
(§3) To further examine the reactivity of this class of compounds, variants Compound 6d and Compound 6e were synthesized (see FIG. 6G). It was hypothesized that the p-methoxy and p-nitro analogs (Compound 6d and Compound 6e, respectively) would display different reactivity profiles. […] After collecting the precipitate and dissolving it in deuterated methanol, no change was observed from a sample of Compound 6e that had never been exposed to a buffered solution. […] It is possible that: 1) that the sodium salt of Compound 6e is much less soluble than the potassium salt; or 2) with different solvating ions present the sulfonate interacts with the electron-poor N2 nitrogen atom of the triazabutadiene to break conjugation and form an insoluble complex (this is backed by a reversible color change of the starting rust-red solid, to the light yellow precipitate). […]

[2] = Acid-triggered diazonium formation; settings: methanolic HCl or exposure to acid; trapped with resorcinol or Tyr 6
From the text: as §1
To further examine the reactivity of this class of compounds, variants Compound 6d and Compound 6e were synthesized (see FIG. 6G). It was hypothesized that the p-methoxy and p-nitro analogs (Compound 6d and Compound 6e, respectively) would display different reactivity profiles. […] After collecting the precipitate and dissolving it in deuterated methanol, no change was observed from a sample of Compound 6e that had never been exposed to a buffered solution. […]

[3] = Decomposition in D2O / buffers followed by NMR; settings: for Compound consumed after 24 hours: D2O, in the dark
Method: For decomposition experiments, buffers were made to the appropriate pH in a 9:1 mix of H2O:D2O. These solutions were added to the compound being assayed such that the buffer capacity was at least 10 fold the concentration of the compound. Some experiments used 5 mg compound in 0.5 mL of buffer (e.g., pH 5 acetate buffer at 25 degrees C.). These were immediately inserted into an NMR instrument and scans were taken at even time intervals to calculate the half-life of the compound based on integration.
as §2
As mentioned above, Compound 6c was reasonably stable in pure D2O. Upon adjusting the pH to 5 with HCl, a rapid initial consumption of Compound 6c to Compound 7 (see FIG. 6E) and a benzenediazonium salt was noted. After this initial burst of reactivity, a slowing and apparent arresting of the reaction was noted. At this pH the hydronium was the limiting reagent. All future reactions were run in buffers with a buffer capacity sufficient to maintain a large excess of hydronium ions. The experiments were performed in 90:10 H2O:D2O buffered solutions to minimize considerations of pH vs. pD. The decomposition to diazonium salts and Compound 7 was measured as a function of pH in phosphate/citrate buffers from pH 4-7 and in a phosphate buffer from pH 6-8. All runs provided linear correlations of concentration and time, indicating a pseudo-zero order reaction (first order with respect to hydronium ion with a large excess of hydronium ions). While the peaks for Compound 7 remained constant, the peaks associated with Compound 6c drifted downfield as the reaction progressed. This drifting was highly reproducible across samples and buffers, but the underlying cause is not understood at this time. A sigmoidal correlation between rate and buffer pH centered at pH 6 was obtained. When resorcinol was not added to consume the diazonium species, 4-phenylazophenol (Compound 8) was observed (see FIG. 6F). Compound 8 came from the decomposition of one diazonium ion to phenol followed by reaction with a second diazonium ion. The instability of Compound 6c in a pH 7 phosphate buffer was surprising given the stability in D2O. Compound 6c was tested in a non-buffered 90:10 H2O:D2O solution and observed only […] after 6 hours.
as §3

[4] = Hydrolysis (deprotection) rate of protected triazabutadienes; settings: relative to ethyl carbamate 7, FIG. 8G
Method: The reaction is assumed to be second order with the addition of hydroxide to be the rate-determining step.
Without wishing to limit the present invention to any theory or mechanism, it is believed that this can be rationalized by a model whereby the carbonyl is stabilized by being more electron rich and thus less prone to nucleophilic attack.
The reaction is assumed to be second order with the addition of hydroxide to be the rate-determining step. […] Compound was in a concentration of 31 μM in 25 mM sodium borate buffer of pH 10 with scans every 60 seconds. […] Scans were obtained every 60 seconds.

[5] = Photo-induced degradation of triazabutadienes under hand-held UV lamp, followed by NMR; settings: buffered borate solution, UV lamp, NMR integration
Method: (i) The reaction was monitored by comparing starting materials (A, C, D, and E) with product (B); (ii) Peak absorption and extinction coefficients for all of the compounds were excitable by the UV source used; (iii) Time-dependent conversion of compounds was measured by NMR integration.
Referring to FIG. 5A, in some embodiments, triazabutadiene molecules of the present invention may readily photoisomerize to a more reactive Z-form. As an example, an aqueous solution of Compound A was irradiated with a simple hand-held UV lamp (“365 nm,” measured at 350 nm). Consumption of Compound A was observed after only a few hours. […] Without wishing to limit the present invention to any theory or mechanism, it was hypothesized that if a two-electron process were happening, then Compound A-Z would be more basic than Compound A-E. A 1.0 N NaOH solution of Compound A was treated with light. […] Benzene diazonium ions also absorb UV light to expel nitrogen and generate a benzene radical. In order to resolve if the initial cleavage undergoes a radical homolytic mechanism versus a two-electron heterolytic mechanism, a trapping experiment using resorcinol was conducted. (Resorcinol was chosen because it can serve a dual role as a radical scavenger and a trap benzene diazonium species that could be formed.) An excess of resorcinol was added to a pH 9 borate-buffered solution of Compound A and the mixture was irradiated with light. The known azobenzene, Sudan Orange G, was formed in a 65% yield (versus 4% for the non-irradiated reaction). Derivatives of Compound A were made to examine the effects of electronic perturbations on the light-induced degradation. […] A buffered borate solution was chosen due to its alkaline nature and lack of complicating signals in the NMR experiment. Compounds C-E all have absorption spectra that are well within the range of the UV lamp (see FIG. 5A(ii)).

[6] = In situ real-time pH measurement upon UV irradiation; settings: compared with Compound A
Method: In an effort to examine the rate order for the pH-increasing reaction more carefully, in situ, real-time pH measurements were acquired. Compound A was dissolved in water and the pH of the solution was adjusted to 9 such that it would not form Compound B in the absence of light. […] This spike was not at all consistent with the model of the pH increase being solely linked to the concentration of Compound B being generated.
A sample was irradiated and then the light was turned off once the pH of the solution started to increase noticeably. […] The experiment was repeated with increasing times of irradiation, and a saw-tooth pattern was obtained. The process was not completely reversible due to some degradation to Compound B. Indeed, triazabutadiene Compound A can serve a dual role of being a photo-masked base (see FIG. 4B(i)), and a base whose intrinsic functional group properties are altered photochemically (FIG. 4B(iii)).
Referring to FIG. 5A(iii), Compound C and Compound D were examined in an effort to find a base that was reversibly basic but also more resistant to degradation.

## Cn1ccn(C)c1=NN=Nc1ccccc1 [Compound 4]
[1]
  Water solubility: not water-soluble
[2]
  Response to acid (diazonium formation): rapid color change

## Cn1ccn(CCCS(=O)(=O)O)c1=NN=Nc1ccccc1 [Compound 6a]
[3]; NMR
  Compound consumed after 24 hours: 50%
[1]
  Water solubility: highly water soluble

## CC(C)(C)n1ccn(CCCS(=O)(=O)O)c1=NN=Nc1ccccc1 [Compound 6b]
[3]; NMR
  Compound consumed after 24 hours: 50%

## Cc1cc(C)c(-n2ccn(CCCS(=O)(=O)[O-])c2=NN=Nc2ccccc2)c(C)c1.[K+] [Compound 6c, Potassium 3-(3-mesityl-2-(phenyltriaz-2-en-1-ylidene)-2,3-dihydro-1H-imidazol-1-yl) propane-1-sulfonate]
[3]; NMR
  Compound consumed after 24 hours: less than 10%
[3]; non-buffered 90:10 H2O:D2O
  Compound consumed after 6 hours: > 7%
[3]; phosphate/citrate pH 4-7 and phosphate pH 6-8 buffers, 90:10 H2O:D2O
  pH at centre of sigmoidal correlation between decomposition rate and buffer pH: 6

## COc1ccc(N=NN=c2n(CCCS(=O)(=O)[O-])ccn2-c2c(C)cc(C)cc2C)cc1.[K+] [Compound 6d]
[3]; NMR
  Compound consumed after 24 hours: 26%

## Cc1cc(C)c(-n2ccn(CCCS(=O)(=O)[O-])c2=NN=Nc2ccc([N+](=O)[O-])cc2)c(C)c1.[K+] [Compound 6e]
[3]; pure D2O, dark, room temperature, NMR
  Stability after 24 hours: stable to within the detection limit of NMR
[1]; pH 5, 6 and 7 phosphate/citrate buffer
  Behaviour in buffered solution (solubility): rapidly precipitated out of solution
[2]
  Response to acid (diazonium formation): immediate color change

## CCOC(=O)N(N=Nc1n(-c2c(C)cc(C)cc2C)cc[n+]1-c1c(C)cc(C)cc1C)c1ccc(C)cc1.[Cl-] [Compound 8]
[4]
  Effect of substituent on rate of deprotection / hydrolysis: slowed the rate of deprotection moderately

## CCOC(=O)N(N=Nc1n(-c2c(C)cc(C)cc2C)cc[n+]1-c1c(C)cc(C)cc1C)c1ccc(OC)cc1.[Cl-] [Compound 9]
[4]
  Effect of substituent on rate of deprotection / hydrolysis: rate could not be determined

## CCOC(=O)N(N=Nc1n(-c2c(C)cc(C)cc2C)cc[n+]1-c1c(C)cc(C)cc1C)c1ccc(C(F)(F)F)cc1.[Cl-] [Compound 10]
[4]
  Effect of substituent on rate of deprotection / hydrolysis: slowed hydrolysis

## CCOC(=O)N(N=Nc1n(-c2c(C)cc(C)cc2C)cc[n+]1-c1c(C)cc(C)cc1C)c1ccc([N+](=O)[O-])cc1.[Cl-] [Compound 11]
[4]
  Effect of substituent on rate of deprotection / hydrolysis: slowed hydrolysis

## Cc1cc(C)c(-n2cc[n+](-c3c(C)cc(C)cc3C)c2N=NN(C(=O)OCC(C)(C)C)c2ccccc2)c(C)c1.[Cl-] [Compound 12]
[4]
  Effect of substituent on rate of deprotection / hydrolysis: small change in rate

## Cc1cc(C)c(-n2cc[n+](-c3c(C)cc(C)cc3C)c2N=NN(C(=O)OC(C)C)c2ccccc2)c(C)c1.[Cl-] [Compound 13]
[4]
  Effect of substituent on rate of deprotection / hydrolysis: small change in rate

## Cc1cc(C)c(-n2ccn(CCCS(=O)(=O)[O-])c2=NN=Nc2cccc([N+](=O)[O-])c2)c(C)c1.[K+] [Compound C]
[5]
  Relative rate of light-induced degradation: slower than Compound A
[6]
  pH change on irradiation: slow subtle change to the pH

## Cc1cc(C)c(-n2ccn(CCCS(=O)(=O)[O-])c2=NN=Nc2ccc(C#N)cc2)c(C)c1.[K+] [Compound D]
[5]
  Relative rate of light-induced degradation: slower than Compound A
[6]
  pH change on irradiation: slow subtle change to the pH

## Cc1cc(C)c(-n2ccn(CCCS(=O)(=O)[O-])c2=NN=Nc2ccc([N+](=O)[O-])cc2)c(C)c1.[K+] [Compound E]
[5]
  Relative rate of light-induced degradation: recalcitrant to degradation
